# Data from ChEMBL document CHEMBL5038588 (J Med Chem, 2021).
# pIC50: −log10 of the molar value.
# What was measured:
# [1] = biological target: Voltage-gated inwardly rectifying potassium channel KCNH2 (Homo sapiens, UniProt Q12809); experiment: Inhibition of hERG; format: toxicity
# Salmonella typhimurium [2] = experiment: Mutagenecity in Salmonella typhimurium TA97a at 0.5 to 312.5 ug/ml incubated for 42 to 72 hrs in presence of S9 fraction by Ames test; format: toxicity, organism-based; settings: salmonella enterica subsp. enterica serovar typhimurium, dose lower 0.5 µg/ml, time lower 42 hrs, dose upper 312.5 µg/ml, time upper 72 hrs
# Salmonella typhimurium [3] = experiment: Mutagenecity in Salmonella typhimurium TA98 at 0.5 to 312.5 ug/ml incubated for 42 to 72 hrs in presence of S9 fraction by Ames test; format: toxicity, organism-based; settings: salmonella enterica subsp. enterica serovar typhimurium, dose lower 0.5 µg/ml, time lower 42 hrs, dose upper 312.5 µg/ml, time upper 72 hrs
# Salmonella typhimurium [4] = experiment: Mutagenecity in Salmonella typhimurium TA102 at 0.5 to 312.5 ug/ml incubated for 42 to 72 hrs in presence of S9 fraction by Ames test; format: toxicity, organism-based; settings: salmonella enterica subsp. enterica serovar typhimurium, dose lower 0.5 µg/ml, time lower 42 hrs, dose upper 312.5 µg/ml, time upper 72 hrs
# Salmonella typhimurium [5] = experiment: Mutagenecity in Salmonella typhimurium TA100 at 0.5 to 312.5 ug/ml incubated for 42 to 72 hrs in presence of S9 fraction by Ames test; format: toxicity, organism-based; settings: salmonella enterica subsp. enterica serovar typhimurium, dose lower 0.5 µg/ml, time lower 42 hrs, dose upper 312.5 µg/ml, time upper 72 hrs
# [6] = Genotoxicity in ICR mouse bone marrow at 25 to 100 mg/kg administered via oral gavage and measured after 24 to 48 hrs by micronucleus assay; format: toxicity, organism-based; settings: in vivo, dose lower 25 mg/kg, time lower 24 hrs, dose upper 100 mg/kg, time upper 48 hrs
# [7] = Toxicity in ICR mouse assessed as maximum tolerated dose administered as single oral dose for 14 days; settings: in vivo, time 14 day
# [8] = Tmax in ICR mouse at 15 mg/kg, po measured upto 24 hrs by LC/MS/MS analysis; format: ADME, organism-based; settings: in vivo
# [9] = Tmax in ICR mouse at 5 mg/kg, iv measured upto 24 hrs by LC/MS/MS analysis; format: ADME, organism-based; settings: in vivo
# [10] = Cmax in ICR mouse at 15 mg/kg, po measured upto 24 hrs by LC/MS/MS analysis; format: ADME, organism-based; set-up: route oral, dose 15 mg/kg, time <=24; settings: in vivo
# [11] = Cmax in ICR mouse at 5 mg/kg, iv measured upto 24 hrs by LC/MS/MS analysis; format: ADME, organism-based; set-up: route intravenous, dose 5 mg/kg, time <=24; settings: in vivo
# [12] = AUC (0 to t) in ICR mouse at 15 mg/kg, po measured upto 24 hrs by LC/MS/MS analysis; format: ADME, organism-based; set-up: route oral, dose 15 mg/kg, time <=24; settings: in vivo
# [13] = AUC (0 to t) in ICR mouse at 5 mg/kg, iv measured upto 24 hrs by LC/MS/MS analysis; format: ADME, organism-based; set-up: route intravenous, dose 5 mg/kg, time <=24; settings: in vivo
# [14] = AUC (0 to infinity) in ICR mouse at 15 mg/kg, po measured upto 24 hrs by LC/MS/MS analysis; format: ADME, organism-based; set-up: route oral, dose 15 mg/kg, time <=24; settings: in vivo
# [15] = AUC (0 to infinity) in ICR mouse at 5 mg/kg, iv measured upto 24 hrs by LC/MS/MS analysis; format: ADME, organism-based; set-up: route intravenous, dose 5 mg/kg, time <=24; settings: in vivo
# [16] = MRT in ICR mouse at 15 mg/kg, po measured upto 24 hrs by LC/MS/MS analysis; format: ADME, organism-based; settings: in vivo
# [17] = MRT in ICR mouse at 5 mg/kg, iv measured upto 24 hrs by LC/MS/MS analysis; format: ADME, organism-based; settings: in vivo
# [18] = Half life in ICR mouse at 15 mg/kg, po measured upto 24 hrs by LC/MS/MS analysis; format: ADME, organism-based; settings: in vivo
# [19] = Half life in ICR mouse at 5 mg/kg, iv measured upto 24 hrs by LC/MS/MS analysis; format: ADME, organism-based; settings: in vivo
# [20] = Clearance in ICR mouse at 5 mg/kg, iv measured upto 24 hrs by LC/MS/MS analysis; format: ADME, organism-based; settings: in vivo
# [21] = Volume of distribution at steady state in ICR mouse at 5 mg/kg, iv measured upto 24 hrs by LC/MS/MS analysis; format: ADME, organism-based; settings: in vivo, read-out: Vdss
# [22] = Oral bioavailability in ICR mouse at 15 mg/kg measured upto 24 hrs by LC/MS/MS analysis; format: ADME, organism-based; settings: in vivo
# [23] = biological target: Proto-oncogene tyrosine-protein kinase Src (Homo sapiens, UniProt P12931); experiment: Inhibition of human c-SRC using poly [Glu:Tyr] as substrate incubated for 30 mins followed by 33P-ATP addition and measured after 2 hrs by liquid scintillation counter method
# Chain of Proto-oncogene tyrosine-protein kinase Src (P12931 2-536 limits assumed): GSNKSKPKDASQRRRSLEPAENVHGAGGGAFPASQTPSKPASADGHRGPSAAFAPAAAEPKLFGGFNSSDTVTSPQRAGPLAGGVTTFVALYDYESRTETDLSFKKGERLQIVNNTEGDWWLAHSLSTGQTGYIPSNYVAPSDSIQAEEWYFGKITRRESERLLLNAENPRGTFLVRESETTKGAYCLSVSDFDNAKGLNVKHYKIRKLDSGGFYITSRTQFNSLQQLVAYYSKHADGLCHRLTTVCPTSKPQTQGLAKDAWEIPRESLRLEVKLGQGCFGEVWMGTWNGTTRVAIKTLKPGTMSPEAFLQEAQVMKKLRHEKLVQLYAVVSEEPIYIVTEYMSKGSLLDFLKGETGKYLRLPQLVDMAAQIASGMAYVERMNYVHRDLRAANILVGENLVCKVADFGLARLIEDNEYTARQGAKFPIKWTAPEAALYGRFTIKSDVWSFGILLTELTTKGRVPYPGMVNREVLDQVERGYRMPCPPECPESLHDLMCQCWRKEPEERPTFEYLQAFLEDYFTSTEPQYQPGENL
# [24] = biological target: T1, Receptor-type tyrosine-protein kinase FLT3 (Homo sapiens, UniProt P36888); experiment: Inhibition of human FLT3 using EAIYAAPFAKKK as substrate incubated for 30 mins followed by 33P-ATP addition and measured after 2 hrs by liquid scintillation counter method
# T1 sequence (P36888 whole entry): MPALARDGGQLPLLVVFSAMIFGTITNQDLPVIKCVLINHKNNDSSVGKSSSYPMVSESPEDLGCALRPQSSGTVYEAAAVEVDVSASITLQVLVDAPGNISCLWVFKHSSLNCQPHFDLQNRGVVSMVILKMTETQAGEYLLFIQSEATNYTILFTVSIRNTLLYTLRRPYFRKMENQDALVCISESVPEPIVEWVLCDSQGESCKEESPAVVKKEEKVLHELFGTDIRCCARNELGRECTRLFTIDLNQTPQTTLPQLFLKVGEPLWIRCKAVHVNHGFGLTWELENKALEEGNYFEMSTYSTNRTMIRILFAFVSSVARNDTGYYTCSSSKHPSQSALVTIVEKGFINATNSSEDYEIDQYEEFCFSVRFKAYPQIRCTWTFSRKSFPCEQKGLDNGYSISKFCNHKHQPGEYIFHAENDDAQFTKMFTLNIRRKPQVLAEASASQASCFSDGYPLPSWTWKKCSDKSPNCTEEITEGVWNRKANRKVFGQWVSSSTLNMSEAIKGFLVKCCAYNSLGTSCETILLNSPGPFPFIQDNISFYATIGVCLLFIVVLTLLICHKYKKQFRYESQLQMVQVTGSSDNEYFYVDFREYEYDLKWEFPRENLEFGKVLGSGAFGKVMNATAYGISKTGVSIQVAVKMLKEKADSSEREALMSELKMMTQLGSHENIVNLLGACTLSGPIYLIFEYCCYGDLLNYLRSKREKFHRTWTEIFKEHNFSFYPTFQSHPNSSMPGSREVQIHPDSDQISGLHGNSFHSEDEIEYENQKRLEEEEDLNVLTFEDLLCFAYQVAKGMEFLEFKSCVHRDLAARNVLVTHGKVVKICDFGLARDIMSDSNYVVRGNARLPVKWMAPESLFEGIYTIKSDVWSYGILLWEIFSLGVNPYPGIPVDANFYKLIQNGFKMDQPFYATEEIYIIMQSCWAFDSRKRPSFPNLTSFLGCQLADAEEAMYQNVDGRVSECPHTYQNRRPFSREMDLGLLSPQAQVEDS
# [25] = biological target: Vascular endothelial growth factor receptor 2 (Homo sapiens, UniProt P35968); experiment: Inhibition of human KDR/VEGFR2 using poly [Glu:Tyr] as substrate incubated for 30 mins followed by 33P-ATP addition and measured after 2 hrs by liquid scintillation counter method
# Chain of Vascular endothelial growth factor receptor 2 (P35968 whole entry): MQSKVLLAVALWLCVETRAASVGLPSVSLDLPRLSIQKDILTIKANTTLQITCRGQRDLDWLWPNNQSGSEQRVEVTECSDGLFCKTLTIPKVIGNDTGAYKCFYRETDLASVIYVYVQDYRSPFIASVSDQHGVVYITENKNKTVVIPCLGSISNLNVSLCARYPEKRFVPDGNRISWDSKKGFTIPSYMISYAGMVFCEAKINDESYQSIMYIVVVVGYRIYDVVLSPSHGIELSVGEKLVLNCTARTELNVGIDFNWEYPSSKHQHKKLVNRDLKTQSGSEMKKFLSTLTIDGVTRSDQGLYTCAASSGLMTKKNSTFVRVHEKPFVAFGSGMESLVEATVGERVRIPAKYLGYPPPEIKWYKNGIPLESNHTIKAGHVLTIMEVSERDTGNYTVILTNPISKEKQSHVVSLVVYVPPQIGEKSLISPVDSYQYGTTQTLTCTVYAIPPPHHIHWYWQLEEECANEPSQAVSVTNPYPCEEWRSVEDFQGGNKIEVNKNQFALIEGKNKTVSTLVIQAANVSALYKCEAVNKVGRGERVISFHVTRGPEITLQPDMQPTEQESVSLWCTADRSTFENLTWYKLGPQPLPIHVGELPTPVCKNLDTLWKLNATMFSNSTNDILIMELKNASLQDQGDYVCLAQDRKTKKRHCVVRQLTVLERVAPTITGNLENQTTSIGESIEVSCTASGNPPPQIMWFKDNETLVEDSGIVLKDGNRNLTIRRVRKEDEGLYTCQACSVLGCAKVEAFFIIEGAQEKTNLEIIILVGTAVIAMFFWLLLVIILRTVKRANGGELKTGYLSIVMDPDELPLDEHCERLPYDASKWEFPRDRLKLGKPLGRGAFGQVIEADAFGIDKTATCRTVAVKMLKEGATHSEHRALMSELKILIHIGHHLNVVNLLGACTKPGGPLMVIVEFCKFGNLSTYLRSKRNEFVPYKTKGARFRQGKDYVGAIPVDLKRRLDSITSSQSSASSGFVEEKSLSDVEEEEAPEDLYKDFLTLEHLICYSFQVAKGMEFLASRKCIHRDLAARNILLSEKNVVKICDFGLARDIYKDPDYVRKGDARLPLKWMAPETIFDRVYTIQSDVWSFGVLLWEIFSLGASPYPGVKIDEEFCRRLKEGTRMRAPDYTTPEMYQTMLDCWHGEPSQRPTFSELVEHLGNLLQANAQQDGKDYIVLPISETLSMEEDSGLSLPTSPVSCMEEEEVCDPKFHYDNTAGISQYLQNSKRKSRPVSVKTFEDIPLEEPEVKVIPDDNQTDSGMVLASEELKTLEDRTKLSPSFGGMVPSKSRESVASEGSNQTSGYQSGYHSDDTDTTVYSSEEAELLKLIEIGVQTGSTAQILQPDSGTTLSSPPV
# [26] = biological target: Tyrosine-protein kinase Lyn (Homo sapiens, UniProt P07948); experiment: Inhibition of human LYN using poly [Glu:Tyr] as substrate incubated for 30 mins followed by 33P-ATP addition and measured after 2 hrs by liquid scintillation counter method
# Chain of Tyrosine-protein kinase Lyn (P07948 whole entry): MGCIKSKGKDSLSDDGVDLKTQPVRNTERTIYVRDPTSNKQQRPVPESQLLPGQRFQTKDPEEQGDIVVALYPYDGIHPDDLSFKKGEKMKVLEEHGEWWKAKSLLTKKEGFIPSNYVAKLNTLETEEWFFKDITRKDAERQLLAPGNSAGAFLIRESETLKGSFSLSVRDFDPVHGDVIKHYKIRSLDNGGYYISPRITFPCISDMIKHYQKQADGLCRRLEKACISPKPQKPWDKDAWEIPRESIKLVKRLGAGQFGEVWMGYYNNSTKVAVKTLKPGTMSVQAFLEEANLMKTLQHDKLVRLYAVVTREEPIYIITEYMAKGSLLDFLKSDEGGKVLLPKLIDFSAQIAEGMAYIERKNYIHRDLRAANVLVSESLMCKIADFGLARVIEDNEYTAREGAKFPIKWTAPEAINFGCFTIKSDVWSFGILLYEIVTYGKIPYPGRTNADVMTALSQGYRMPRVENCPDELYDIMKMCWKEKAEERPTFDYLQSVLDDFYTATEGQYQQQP
# [27] = biological target: Platelet-derived growth factor receptor alpha (Homo sapiens, UniProt P16234); experiment: Inhibition of human PDGFRa using poly [Glu:Tyr] as substrate incubated for 30 mins followed by 33P-ATP addition and measured after 2 hrs by liquid scintillation counter method
# Chain of Platelet-derived growth factor receptor alpha (P16234 whole entry): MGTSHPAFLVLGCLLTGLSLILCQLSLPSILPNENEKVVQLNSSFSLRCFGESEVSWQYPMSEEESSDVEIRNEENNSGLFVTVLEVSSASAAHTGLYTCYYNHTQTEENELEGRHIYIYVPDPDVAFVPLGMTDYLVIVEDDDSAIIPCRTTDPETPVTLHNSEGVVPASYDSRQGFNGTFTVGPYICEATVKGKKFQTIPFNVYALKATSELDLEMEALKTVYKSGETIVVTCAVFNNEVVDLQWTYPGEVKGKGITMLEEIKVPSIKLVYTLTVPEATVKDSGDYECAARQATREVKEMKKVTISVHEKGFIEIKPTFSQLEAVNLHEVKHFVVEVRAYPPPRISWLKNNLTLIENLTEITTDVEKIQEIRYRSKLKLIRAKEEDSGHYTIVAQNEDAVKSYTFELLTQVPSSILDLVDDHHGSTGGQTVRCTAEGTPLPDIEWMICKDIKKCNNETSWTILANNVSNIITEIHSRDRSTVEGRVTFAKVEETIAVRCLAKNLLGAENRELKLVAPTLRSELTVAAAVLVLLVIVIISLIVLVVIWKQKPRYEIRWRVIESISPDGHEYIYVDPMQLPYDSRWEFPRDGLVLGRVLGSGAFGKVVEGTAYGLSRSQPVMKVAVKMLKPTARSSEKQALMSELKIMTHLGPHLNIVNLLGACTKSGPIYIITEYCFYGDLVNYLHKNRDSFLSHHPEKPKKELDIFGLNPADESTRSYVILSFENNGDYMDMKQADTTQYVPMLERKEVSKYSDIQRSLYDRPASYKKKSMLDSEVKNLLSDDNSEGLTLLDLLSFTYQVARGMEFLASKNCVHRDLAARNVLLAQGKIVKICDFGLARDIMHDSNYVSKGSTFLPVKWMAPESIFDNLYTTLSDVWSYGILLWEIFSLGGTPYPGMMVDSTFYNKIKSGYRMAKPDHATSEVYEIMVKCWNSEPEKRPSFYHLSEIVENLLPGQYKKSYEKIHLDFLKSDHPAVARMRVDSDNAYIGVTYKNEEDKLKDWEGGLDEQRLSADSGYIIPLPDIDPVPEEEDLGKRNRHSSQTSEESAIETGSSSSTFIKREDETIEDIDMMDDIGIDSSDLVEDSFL
# Salmonella typhimurium [28] = experiment: Mutagenecity in Salmonella typhimurium TA1535 at 0.5 to 312.5 ug/ml incubated for 42 to 72 hrs in presence of S9 fraction by Ames test; format: toxicity, organism-based; settings: salmonella enterica subsp. enterica serovar typhimurium, dose lower 0.5 µg/ml, time lower 42 hrs, dose upper 312.5 µg/ml, time upper 72 hrs
# Chain of Voltage-gated inwardly rectifying potassium channel KCNH2 (Q12809 whole entry): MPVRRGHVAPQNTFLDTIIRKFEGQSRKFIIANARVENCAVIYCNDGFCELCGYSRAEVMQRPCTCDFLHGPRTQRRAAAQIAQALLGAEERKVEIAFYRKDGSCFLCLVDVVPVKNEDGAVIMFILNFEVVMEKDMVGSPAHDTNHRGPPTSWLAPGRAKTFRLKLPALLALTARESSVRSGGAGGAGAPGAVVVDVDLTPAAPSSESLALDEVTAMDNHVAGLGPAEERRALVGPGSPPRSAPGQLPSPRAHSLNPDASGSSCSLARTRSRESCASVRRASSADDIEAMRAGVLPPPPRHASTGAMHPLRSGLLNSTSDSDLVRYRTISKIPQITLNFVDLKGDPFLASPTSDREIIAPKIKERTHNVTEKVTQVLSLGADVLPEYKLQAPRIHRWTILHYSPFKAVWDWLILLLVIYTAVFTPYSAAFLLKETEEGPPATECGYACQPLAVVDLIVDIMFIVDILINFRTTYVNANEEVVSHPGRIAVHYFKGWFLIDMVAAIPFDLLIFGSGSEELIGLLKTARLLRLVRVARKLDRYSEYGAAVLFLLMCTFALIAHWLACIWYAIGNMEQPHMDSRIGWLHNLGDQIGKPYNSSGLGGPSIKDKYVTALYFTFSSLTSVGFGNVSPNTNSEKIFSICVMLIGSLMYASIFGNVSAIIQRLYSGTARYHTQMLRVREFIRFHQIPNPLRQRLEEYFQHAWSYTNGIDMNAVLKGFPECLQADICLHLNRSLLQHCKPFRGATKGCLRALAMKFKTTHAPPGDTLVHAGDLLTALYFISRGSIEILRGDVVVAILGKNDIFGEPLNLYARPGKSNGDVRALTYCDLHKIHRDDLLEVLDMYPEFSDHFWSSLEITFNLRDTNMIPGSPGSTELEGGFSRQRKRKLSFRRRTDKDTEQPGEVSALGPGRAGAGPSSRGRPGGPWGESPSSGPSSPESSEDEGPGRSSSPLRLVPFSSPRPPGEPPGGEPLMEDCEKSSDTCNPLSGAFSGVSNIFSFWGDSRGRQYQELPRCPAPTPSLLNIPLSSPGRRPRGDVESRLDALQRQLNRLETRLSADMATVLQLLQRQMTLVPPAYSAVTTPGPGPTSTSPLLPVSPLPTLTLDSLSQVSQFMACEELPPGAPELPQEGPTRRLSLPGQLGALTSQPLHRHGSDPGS
smiles,measurement,setting,value
Cc1ccc(C(=O)Nc2ccc3c(c2)C(F)(F)C[C@@H]3N2CCN(C)CC2)cc1C#Cc1cnc2cccnn12,pIC50,[1],4.95
same,Activity,Salmonella typhimurium [2],Non-Toxic
same,Activity,Salmonella typhimurium [3],Non-Toxic
same,Activity,Salmonella typhimurium [4],Non-Toxic
same,Activity,Salmonella typhimurium [5],Non-Toxic
same,Activity,[6],Non-Toxic
same,MTD at 336 h,[7],100 mg/kg
same,Tmax,[8],5 h
same,Tmax,[9],4.8 min
same,Cmax,[10],129 ng/mL
same,Cmax,[11],1470 ng/mL
same,AUC(0-t) at 24 h,[12],1390 ng·h/mL
same,AUC(0-t) at 24 h,[13],1390 ng·h/mL
same,AUC(0-inf),[14],1440 ng·h/mL
same,AUC(0-inf),[15],1500 ng·h/mL
same,MRT,[16],8.22 h
same,MRT,[17],5.11 h
same,half-life,[18],4.61 h
same,half-life,[19],5.3 h
same,clearance,[20],62 mL/min/kg
same,Vd,[21],18.1 L/kg
same,bioavailability,[22],32%
same,pIC50,[23],> 8.00
same,pIC50,[24],> 8.00
same,pIC50,[25],> 8.00
same,pIC50,[26],> 8.00
same,pIC50,[27],> 8.00
same,Activity,Salmonella typhimurium [28],Non-Toxic
